Series [1] concerns HCT-116. In words: HCT-116 anti-proliferation (GI50). The series is classed as cell-based, human. The note with it: means of n ≧ 2 experiments. The protocol:
(§1) The novel compounds of the present invention were tested for their ability to inhibit proliferation of the human cervical cancer (HeLa) and colon carcinoma (HCT116) cells.
In this assay, also referred to as the Vialight Assay, cellular ATP levels are measured as a means of quantifying cellular proliferation. This assay makes use of a bioluminescent method from Cambrex (ViaLight PLUS, cat. #LT07-121). In the presence of ATP, luciferase converts luciferin to oxyluciferin and light. The amount of light produced (emission at 565 nm) is measured and correlates with a relative amount of proliferation. Human cervical cancer (HeLa) or colon carcinoma (HCT116) cells were incubated with vehicle or increasing concentrations of compound for 48, 72 or 96 hours. Cell proliferation was quantified by adding the cell lysis reagent (provided in the Vialight assay kit) directly to culture wells, followed by addition of the ATP-monitoring reagent (containing luciferase/luciferin). The amount of light produced is then measured (emission at 565 nm). The quantity of light produced, as measured by […], is directly proportional to the number of living cells in culture. […]

Series [2] deals with CYP3A4 (Homo sapiens (Human), UniProt P08684). In words: CYP inhibition potential, CYP3A4. The series is classed as in vitro ADME. The source says:
(§2) The ancillary pharmacology profiles of the SHI-1:2 carbamate analogs were also gathered to investigate off-target activities (Table 12).

Series [3] deals with CYP2C9 (Homo sapiens (Human), UniProt P11712). As to the kind of experiment: CYP inhibition potential, CYP2C9. Format: in vitro ADME.
Sequence of CYP2C9 (P11712 whole entry): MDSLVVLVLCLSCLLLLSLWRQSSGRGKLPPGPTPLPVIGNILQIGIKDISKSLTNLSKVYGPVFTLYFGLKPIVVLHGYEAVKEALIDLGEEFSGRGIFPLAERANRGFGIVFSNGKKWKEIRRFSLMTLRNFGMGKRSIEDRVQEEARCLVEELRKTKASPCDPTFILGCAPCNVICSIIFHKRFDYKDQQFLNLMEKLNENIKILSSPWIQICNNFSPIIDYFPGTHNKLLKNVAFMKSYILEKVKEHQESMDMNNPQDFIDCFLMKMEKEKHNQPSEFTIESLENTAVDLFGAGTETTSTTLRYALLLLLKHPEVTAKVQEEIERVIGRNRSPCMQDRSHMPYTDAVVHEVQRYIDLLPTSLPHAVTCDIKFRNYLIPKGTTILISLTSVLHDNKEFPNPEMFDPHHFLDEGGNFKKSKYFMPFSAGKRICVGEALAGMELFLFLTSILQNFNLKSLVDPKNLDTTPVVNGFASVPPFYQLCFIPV
From the text: as §2

Series [4] concerns the target IKr ion channel (Homo sapiens (Human), UniProt Q12809). As to the kind of experiment: Displacement binding assay using radio-labeled MK-499. The conditions noted are these: 10 μM.
From the text: as §2

Series [5] has as its target CYP2D6 (Homo sapiens (Human), UniProt P10635). As to the kind of experiment: CYP inhibition potential, CYP2D6. Format: in vitro ADME.
From the text: as §2

For series [6], the target named is histone deacetylase, subtype 1 (HDAC1) (Homo sapiens (Human), UniProt Q13547). As to the kind of experiment: HDAC1-Flag in vitro deacetylation assay. Format: biochemical. The conditions noted are these: IP = inflection point; read-out: HDAC1 IP (inflection point). A digest of the protocol: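 Enzyme: Flag epitope-tagged human HDAC1 complex immunopurified from stably expressing mammalian cells. Substrate carries an acetylated lysine side chain; deacetylation yields a fluorophore proportional to activity, measured as fluorescence.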
Sequence of histone deacetylase, subtype 1 (HDAC1) (Q13547 whole entry): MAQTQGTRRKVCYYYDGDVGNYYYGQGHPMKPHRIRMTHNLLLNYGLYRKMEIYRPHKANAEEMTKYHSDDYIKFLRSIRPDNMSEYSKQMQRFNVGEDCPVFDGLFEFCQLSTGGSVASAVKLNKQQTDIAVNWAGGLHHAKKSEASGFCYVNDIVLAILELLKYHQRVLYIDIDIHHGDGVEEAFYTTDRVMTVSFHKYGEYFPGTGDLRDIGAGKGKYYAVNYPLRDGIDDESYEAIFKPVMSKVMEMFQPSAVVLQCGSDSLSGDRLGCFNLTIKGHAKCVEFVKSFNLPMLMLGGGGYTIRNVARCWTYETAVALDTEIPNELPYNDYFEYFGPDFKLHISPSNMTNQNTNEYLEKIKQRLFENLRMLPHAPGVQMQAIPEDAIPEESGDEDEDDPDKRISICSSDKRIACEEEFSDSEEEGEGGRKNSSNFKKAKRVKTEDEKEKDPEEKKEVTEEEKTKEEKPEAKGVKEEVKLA

For series [7], the system named is human cervical cancer (HeLa) and colon carcinoma (HCT116) cells. In words: ATP (Vialight) cell proliferation assay, 72 hr. Format: cell-based. The note with it: IP = inflection point, cell line not given, read-out: Prol-72 hr IP (inflection point). How it is done:
as §1
In this assay, also referred to as the Vialight Assay, cellular ATP levels are measured as a means of quantifying cellular proliferation. This assay makes use of a bioluminescent method from Cambrex (ViaLight PLUS, cat. #LT07-121). In the presence of ATP, luciferase converts luciferin to oxyluciferin and light. The amount of light produced (emission at 565 nm) is measured and correlates with a relative amount of proliferation. Human cervical cancer (HeLa) or colon carcinoma (HCT116) cells were incubated with vehicle or increasing concentrations of compound for 48, 72 or 96 hours. Cell proliferation was quantified by adding the cell lysis reagent (provided in the Vialight assay kit) directly to culture wells, followed by addition of the ATP-monitoring reagent (containing luciferase/luciferin). The amount of light produced is then measured (emission at 565 nm). The quantity of light produced, as measured by […], is directly proportional to the number of living cells in culture.

Sequence of CYP3A4 (P08684 whole entry): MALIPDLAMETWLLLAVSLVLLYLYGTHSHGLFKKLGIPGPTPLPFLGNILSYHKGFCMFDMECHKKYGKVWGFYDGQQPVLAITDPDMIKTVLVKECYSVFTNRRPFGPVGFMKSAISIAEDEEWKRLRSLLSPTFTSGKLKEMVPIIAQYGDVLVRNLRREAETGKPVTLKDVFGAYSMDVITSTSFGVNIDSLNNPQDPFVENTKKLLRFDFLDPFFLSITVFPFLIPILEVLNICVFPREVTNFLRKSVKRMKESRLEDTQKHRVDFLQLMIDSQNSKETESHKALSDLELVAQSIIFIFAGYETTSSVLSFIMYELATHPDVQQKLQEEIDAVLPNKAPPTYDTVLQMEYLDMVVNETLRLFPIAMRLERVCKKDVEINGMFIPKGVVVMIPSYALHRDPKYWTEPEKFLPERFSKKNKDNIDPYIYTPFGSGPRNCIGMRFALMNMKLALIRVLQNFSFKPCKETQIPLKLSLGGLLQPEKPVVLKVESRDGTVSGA
Sequence of CYP2D6 (P10635 whole entry): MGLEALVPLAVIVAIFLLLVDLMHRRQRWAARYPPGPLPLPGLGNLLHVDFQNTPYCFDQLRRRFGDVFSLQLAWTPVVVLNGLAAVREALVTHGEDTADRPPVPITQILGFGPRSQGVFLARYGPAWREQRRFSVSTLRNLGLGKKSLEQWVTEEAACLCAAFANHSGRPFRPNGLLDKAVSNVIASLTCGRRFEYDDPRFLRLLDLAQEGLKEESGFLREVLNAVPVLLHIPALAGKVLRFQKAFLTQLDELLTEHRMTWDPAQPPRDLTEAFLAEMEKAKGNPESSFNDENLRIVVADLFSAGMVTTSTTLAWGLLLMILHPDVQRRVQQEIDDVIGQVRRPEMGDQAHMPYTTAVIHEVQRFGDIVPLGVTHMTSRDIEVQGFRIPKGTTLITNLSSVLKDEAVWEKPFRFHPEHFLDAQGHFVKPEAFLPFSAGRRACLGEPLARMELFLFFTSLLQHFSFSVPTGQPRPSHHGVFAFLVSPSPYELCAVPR
Sequence of IKr ion channel (Q12809 whole entry): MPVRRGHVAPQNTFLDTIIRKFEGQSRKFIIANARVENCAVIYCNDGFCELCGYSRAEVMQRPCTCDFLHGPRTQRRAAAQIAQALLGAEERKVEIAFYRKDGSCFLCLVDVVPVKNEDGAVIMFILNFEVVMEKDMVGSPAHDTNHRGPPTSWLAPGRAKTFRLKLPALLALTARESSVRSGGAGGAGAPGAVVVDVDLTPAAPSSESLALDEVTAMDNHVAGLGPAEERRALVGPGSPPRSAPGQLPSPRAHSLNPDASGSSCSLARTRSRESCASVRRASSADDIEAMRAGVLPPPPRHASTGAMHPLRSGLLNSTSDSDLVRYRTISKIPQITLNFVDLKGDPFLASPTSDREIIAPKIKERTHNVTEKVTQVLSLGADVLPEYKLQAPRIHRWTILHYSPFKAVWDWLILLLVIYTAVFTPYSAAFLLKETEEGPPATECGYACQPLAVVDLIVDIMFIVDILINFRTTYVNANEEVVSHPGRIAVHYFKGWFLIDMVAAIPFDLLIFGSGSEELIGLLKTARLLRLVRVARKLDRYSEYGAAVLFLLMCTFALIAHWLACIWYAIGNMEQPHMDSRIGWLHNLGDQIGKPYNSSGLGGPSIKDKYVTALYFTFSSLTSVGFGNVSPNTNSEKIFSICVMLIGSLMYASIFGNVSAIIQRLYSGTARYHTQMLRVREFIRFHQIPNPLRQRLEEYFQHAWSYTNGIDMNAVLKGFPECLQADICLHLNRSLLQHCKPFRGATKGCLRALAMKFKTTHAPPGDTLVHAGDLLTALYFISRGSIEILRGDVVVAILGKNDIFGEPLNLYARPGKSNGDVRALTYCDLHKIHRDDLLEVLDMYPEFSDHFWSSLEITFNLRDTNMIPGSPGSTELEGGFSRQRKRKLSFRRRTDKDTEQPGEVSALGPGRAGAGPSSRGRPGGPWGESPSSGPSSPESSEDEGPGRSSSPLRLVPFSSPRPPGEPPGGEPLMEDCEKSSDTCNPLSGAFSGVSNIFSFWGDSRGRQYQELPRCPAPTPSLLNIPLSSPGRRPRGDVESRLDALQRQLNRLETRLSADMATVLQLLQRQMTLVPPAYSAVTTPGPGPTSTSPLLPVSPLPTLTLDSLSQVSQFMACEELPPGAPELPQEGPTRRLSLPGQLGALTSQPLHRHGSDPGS

In general, GI50 refers to the concentration giving 50% growth inhibition. `Nc1ccc(-c2ccccc2)cc1NC(=O)c1ccc(CNC(=O)OCc2cccnc2)cc1` [Example 2a]: in series [1], growth was halved (GI50) at 225 nM.
For `COC(=O)NCc1ccc(C(=O)Nc2cc(-c3ccccc3)ccc2N)cc1` [Example 14f], the “% CYP Inhibition @ 10 μM 3A4” value in series [2] stood at 23%. Also, the “% CYP Inhibition @ 10 μM 2C9” value in series [3] stood at 46%. Besides, the “% MK-499 Binding Inhibition @ 10 μM” value in series [4] is 28%. The “% CYP Inhibition @ 10 μM 2D6” value in series [5] came out at 49%. The compound also gave a GI50 in series [1] of 230 nM.
Consider `Nc1ccc(-c2cccs2)cc1NC(=O)c1ccc(CNC(=O)Cc2ccccn2)cc1` [Example 54, N-[2-amino-5-(2-thienyl)phenyl]-4-{[(pyridin-2-ylacetyl)amino]methyl}benzamide], for which the IC50 was determined as 12 nM in series [6] and 160 nM in series [7].
For the compound `Nc1ccc(-c2cccs2)cc1NC(=O)c1ccc(CNC(=O)Cc2ccncc2)cc1` [Example 55, N-[2-amino-5-(2-thienyl)phenyl]-4-{[(pyridin-4-ylacetyl)amino]methyl}benzamide], the IC50 in series [6] was 18 nM; in series [7] it was 160 nM.
For the compound `Nc1ccc(-c2cccs2)cc1NC(=O)c1ccc(CNC(=O)CCc2cccnc2)cc1` [Example 56, N-[2-amino-5-(2-thienyl)phenyl]-4-{[(3-pyridin-3-ylpropanoyl)amino]methyl}benzamide], the IC50 came to 13 nM in series [6] and 160 nM in series [7].
On to `Nc1ccc(-c2cccs2)cc1NC(=O)c1ccc(CNC(=O)[C@@H]2CCCN2)cc1` [Example 57, (2S)-N-[4-({[2-amino-5-(2-thienyl)phenyl]amino}carbonyl)benzyl]pyrrolidine-2-carboxamide], for which the IC50 is 18 nM in series [6] and 280 nM in series [7].
With `Nc1ccc(-c2ccccc2)cc1NC(=O)c1ccc(CNC(=O)[C@@H]2CCCN2)cc1` [Example 58, (2S)-N-(4-{[(4-aminobiphenyl-3-yl)amino]carbonyl}benzyl)pyrrolidine-2-carboxamide], the IC50 in series [6] is 24 nM; in series [7], 380 nM.
With `Nc1ccc(-c2ccccc2)cc1NC(=O)c1ccc(CNC(=O)OCc2ccccn2)cc1` [Example 59, pyridin-2-ylmethyl[(4-{[(4-aminobiphenyl-3-yl)amino]carbonyl}phenyl)methyl]carbamate], the IC50 in series [6] was 20 nM; in series [7], 440 nM.
For the compound `CN(C)S(=O)(=O)NCc1ccc(C(=O)Nc2cc(-c3cccs3)ccc2N)cc1` [Example 60, N-[2-amino-5-(2-thienyl)phenyl]-4-({[(dimethylamino)sulfonyl]amino}methyl)benzamide], the IC50 came to 17 nM in series [6] and 260 nM in series [7].
Take `Nc1ccc(-c2ccccc2)cc1NC(=O)c1ccc(CNc2ccncc2)cc1` [Example 61, N-(4-amino-3-biphenylyl)-4-[(4-pyridinylamino)methyl]benzamide]: the IC50 in series [6] was 10 nM; in series [7] it was 1700 nM.
Regarding `CN(Cc1ccc(C(=O)Nc2cc(-c3ccccc3)ccc2N)cc1)c1ccncc1` [Example 62, N-(4-amino-3-biphenylyl)-4-{[methyl(4-pyridinyl)amino]methyl}benzamide], the IC50 in series [6] is 10 nM; in series [7], 3600 nM.
For `Cc1c(CNCc2ccc(C(=O)Nc3cc(-c4ccccc4)ccc3N)cc2)cnn1C` [Example 63, N-(4-amino-3-biphenylyl)-4-({[(1,5-dimethyl-1H-pyrazol-4-yl)methyl]amino}methyl)benzamide], the values for the IC50 in series [6] and in series [7] were 13 nM and 670 nM, respectively.
As to `CNCCCN(C)Cc1ccc(C(=O)Nc2cc(-c3ccccc3)ccc2N)cc1` [Example 64, N-(4-amino-3-biphenylyl)-4-({methyl[3-(methylamino)propyl]amino}methyl)benzamide], the IC50 worked out at 18 nM in series [6] and 540 nM in series [7].
Take `CC(C)CNCc1ccc(C(=O)Nc2cc(-c3ccccc3)ccc2N)cc1` [Example 65, N-(4-amino-3-biphenylyl)-4-[(isobutylamino)methyl]benzamide]: the values for the IC50 in series [6] and in series [7] were 35 nM and 900 nM, respectively.
As to `COCC(C)NCc1ccc(C(=O)Nc2cc(-c3ccccc3)ccc2N)cc1` (centres unmarked) [Example 66, N-(4-amino-3-biphenylyl)-4-{[(2-methoxy-1-methylethyl)amino]methyl}benzamide], the IC50 in series [6] came to 23 nM; in series [7], 1100 nM.
On the same counts, the results for `Nc1ccc(-c2ccccc2F)cc1NC(=O)c1ccc(CNc2ccncc2)cc1` [Example 67, N-(4-amino-2′-fluoro-3-biphenylyl)-4-[(4-pyridinylamino)methyl]benzamide] are 23 nM and 2100 nM.
In the case of `Nc1ccc(-c2cccc(F)c2)cc1NC(=O)c1ccc(CNc2ccncc2)cc1` [Example 68, N-(4-amino-3′-fluoro-3-biphenylyl)-4-[(4-pyridinylamino)methyl]benzamide], the IC50 in series [6] was found to be 27 nM; in series [7], 9100 nM.
Consider `Cc1csc(-c2ccc(N)c(NC(=O)c3ccc(CNc4ccncc4)cc3)c2)c1` [Example 69, N-[2-amino-5-(4-methyl-2-thienyl)phenyl]-4-[(4-pyridinylamino)methyl]benzamide], for which the IC50 is 15 nM in series [6] and 9700 nM in series [7].
With `Cc1cscc1-c1ccc(N)c(NC(=O)c2ccc(CNc3ccncc3)cc2)c1` [Example 70, N-[2-amino-5-(4-methyl-3-thienyl)phenyl]-4-[(4-pyridinylamino)methyl]benzamide], the IC50 in series [6] turned out to be 180 nM; in series [7] it was 13000 nM.
`Nc1ccc(-c2ccccc2)cc1NC(=O)c1ccc(CN2C(=O)OC[C@@H]2c2ccccc2)cc1` [Example 118, N-(4-aminobiphenyl-3-yl)-4-{[(4S)-2-oxo-4-phenyl-1,3-oxazolidin-3-yl]methyl}benzamide]: the values for the IC50 in series [6] and in series [7] were 64 nM and 1400 nM, respectively.
As for `Nc1ccc(-c2ccccc2)cc1NC(=O)c1ccc(CN2C(=O)OC[C@H]2Cc2ccccc2)cc1` [Example 119, N-(4-aminobiphenyl-3-yl)-4-{[(4R)-2-oxo-4-(phenylmethyl)-1,3-oxazolidin-3-yl]methyl}benzamide], the IC50 in series [6] worked out at 89 nM; in series [7], 1700 nM.
Turning to `Nc1ccc(-c2cccs2)cc1NC(=O)c1ccc(CN2C(=O)OC[C@H]2Cc2ccccc2)cc1` [Example 120, N-[2-amino-5-(2-thienyl)phenyl]-4-{[(4R)-2-oxo-4-(phenylmethyl)-1,3-oxazolidin-3-yl]methyl}benzamide], the IC50 in series [6] came to 84 nM; in series [7] it was 920 nM.
Take `Nc1ccc(-c2ccccc2)cc1NC(=O)c1ccc(CN2C(=O)OC[C@@H]2Cc2ccccc2)cc1` [Example 121, N-(4-aminobiphenyl-3-yl)-4-{[(4S)-2-oxo-4-(phenylmethyl)-1,3-oxazolidin-3-yl]methyl}benzamide]: the IC50 in series [6] stood at 96 nM; in series [7] it was 1400 nM.
In the case of `Nc1ccc(-c2ccccc2)cc1NC(=O)c1ccc(CN2C(=O)OC[C@H]2c2ccccc2)cc1` [Example 122, N-(4-aminobiphenyl-3-yl)-4-{[(4R)-2-oxo-4-phenyl-1,3-oxazolidin-3-yl]methyl}benzamide], the IC50 in series [6] was 58 nM; in series [7] it was 1100 nM.
On the same counts, the results for `CC(=O)N(Cc1ccc(C(=O)Nc2cc(-c3cccs3)ccc2N)cc1)Cc1cn(C)nn1` [Example 123, 4-({Acetyl[(1-methyl-1H-1,2,3-triazol-4-yl)methyl]amino}methyl)-N-[2-amino-5-(2-thienyl)phenyl]benzamide] are 9.5 nM and 87 nM.
For `Nc1ccc(-c2cccs2)cc1NC(=O)c1ccc(CNCC(=O)O)cc1` [Example 124, {[4-({[2-amino-5-(2-thienyl)phenyl]amino}carbonyl)benzyl]amino}acetic acid], the IC50 in series [6] is 34 nM; in series [7], more than 20000 nM.
Turning to `Nc1ccc(-c2ccsc2)cc1NC(=O)c1ccc(CNCC(=O)O)cc1` [Example 125, {[4-({[2-amino-5-(3-thienyl)phenyl]amino}carbonyl)benzyl]amino}acetic acid], the IC50 in series [6] is 42 nM; in series [7], more than 20000 nM.

The values are drawn from patent US9096559B2, “4-carboxybenzylamino derivatives as histone deacetylase inhibitors” (Merck Sharp & Dohme Corp., priority 2007, dated 2015).
